Data: US20080200439A1, “Methods and compositions for modulating BK channel activity and vasodilation” (University of Tennessee Research Foundation, priority 2006, published 2008)
“And” between values parts separate entries of the source, which are not always exact repeats. Equal entries are not always repeated. Where two headings read alike, the source gives them in different places.

Legend:
[1] = target: cbv1+β1 channels (UniProt Q16558+Q62976); test: Patch-clamp of heteromeric cbv1+β1 channels expressed in Xenopus oocytes; format: cell-based, rat
Description: cRNA Preparation and Injection into Xenopus Oocytes. Full-length cDNA coding for cbv1-subunits was cloned from rat cerebral artery myocytes by PCR and ligated to the PCR-XL-TOPO cloning vector (Invitrogen Corp., Carlsbad, Calif., United States of America) (Jaggar et al., 2005). cDNA coding for cbv1-subunits was cleaved from the cloning vector by BamHI (Invitrogen Corp., Carlsbad, Calif., United States of America) and XhoI (Promega, Madison, Wis., United States of America) and directly inserted into the pOX vector for expression in Xenopus oocytes. pOX-cbv1 was linearized with NotI (Promega, Madison, Wis., United States of America) and transcribed in vitro using T3 polymerase. Beta,-subunit cDNA inserted into the EcoR I/Sal I sites of the pCl-neo expression vector was linearized with NotI and transcribed in vitro using T7 polymerase. Beta4-subunit cDNA inserted into the pOx vector was linearized by NotI and transcribed using T3 polymerase. The mMessage-mMachine kit (Ambion Inc., Austin, Tex., United States of America) was used for transcription. The pOX vector and the cDNA coding for β1-subunits were generous gifts from Aguan Wei (Washington University, Saint Louis, Mo., United States of America) and Maria Garcia (Merck Research Laboratories, Whitehouse Station, N.J., United States of America).
Oocytes were removed from Xenopus laevis and prepared as described (Dopico et al., 1998). cRNA was dissolved in […] at 5 (cbv1) and 15 (β1 or β4) ng/μl; 1-μl aliquots were stored at −70° C. Cbv1 cRNA was injected alone (2.5 ng/μp) or coinjected with either β1 or β4 (7.5 ng/μl) cRNAs, giving molar ratios ≧6:1 (β:α). cRNA injection (23 nl/oocyte) was conducted using a modified micropipette (Drummond Scientific Co., Broomall, Pa., United States of America). The interval between injection and patch-clamp recordings was 48-72 h.
Electrophysiology. Oocytes were prepared for patch-clamp recordings as described (Dopico et al., 1998). Single-channel and macroscopic currents were recorded from inside-out (I/O) or outside-out (O/O) patches. For experiments with oocytes, both bath and electrode solutions contained (mM) 135 K^+ gluconate, 5 EGTA, 1 MgCl2, 15 HEPES, 10 glucose, pH 7.35. For experiments with myocytes, KCl substituted for K^+ gluconate. In all experiments, free Ca^2+ in solution was adjusted to the desired value by adding CaCl2. In most studies, free Ca^2+ in electrode solution=10 μM. In O/O studies with 17β-estradiol, however, free Ca^2+ in the electrode solution=0.3 μM. Nominal free Ca^2+ was calculated with MaxChelator Sliders (C. Patton, Stanford University, California, United States of America) and validated experimentally using Ca^2+-selective electrodes (Corning Incorporated Science Products Division, Corning, N.Y., United States of America).
Patch-recording electrodes were made as described (Dopico et al., 1998). Immediately before recording, the tip of each electrode was fire-polished on a microforge WPI MF-200 (World Precision Instruments, Inc., Sarasota, Fla., United States of America) to give resistances of 5-9 MD when filled with solution. An agar bridge with gluconate or Cl^− as the main anion (for oocyte and myocyte experiments, respectively) was used as ground electrode. After excision from the cell, the membrane patch was exposed to a stream of bath solution containing each agent at final concentration. Solutions were applied onto the patches using a pressurized system DAD12 (ALA Scientific Instruments, New York, N.Y., United States of America) via a micropipette tip with an internal diameter of 100 μm. Experiments were carried out at room temperature (21° C.).
(§1) Currents were recorded using an EPC8 amplifier (HEKA Electronics, Lambrecht/Pfalz, Germany) at 1 kHz using a low-pass, eight-pole Bessel filter 902LPF (Frequency Devices, Haverhill, Mass., United States of America). […]

[2] = target: native BK channels in rat cerebral artery myocytes (Rattus norvegicus, UniProt P97678+Q62976); test: Inside-out patch-clamp of native BK channels in freshly isolated cerebral artery myocytes; format: cell-based; conditions: I/O patches, free Ca2+i 3 μM
Description: Myocyte Isolation. Basilar and middle cerebral arteries were dissected out from each brain under a stereozoom microscope (Nikon C-PS, Tokio, Japan) and placed into ice-cold “dissociation medium” (DM) (mM): 0.16 CaCl2, 0.49 EDTA, 10 HEPES, 5 KCl, 0.5 KH2PO4, 2 MgCl2, 110 NaCl, 0.5 NaH2PO4, 10 NaHCO3, 0.02 phenol red, 10 taurine, 10 glucose. Each artery was cut into 1-2 mm long rings (˜30 rings/experiment). Rings were put in 3 ml DM containing 0.03% papain, 0.05% bovine serum albumin (BSA) and 0.004% dithiothreitol (DTT) for 15 min at 37° C. in a polypropylene centrifuge tube, and then incubated in a shaking water bath at 37° C. and 60 oscillations/min. for 15 min. The prepartion was then centrifuged several times as described (Liu et al., 2004). […]
Electrophysiology. […] Single-channel and macroscopic currents were recorded from inside-out (I/O) or outside-out (O/O) patches. […] Nominal free Ca^2+ was calculated with MaxChelator Sliders (C. Patton, Stanford University, California, United States of America) and validated experimentally using Ca^2+-selective electrodes (Corning Incorporated Science Products Division, Corning, N.Y., United States of America). […]
as §1

Chain of cbv1+β1 channels (Q62976 1-1148 isoform Q62976-2): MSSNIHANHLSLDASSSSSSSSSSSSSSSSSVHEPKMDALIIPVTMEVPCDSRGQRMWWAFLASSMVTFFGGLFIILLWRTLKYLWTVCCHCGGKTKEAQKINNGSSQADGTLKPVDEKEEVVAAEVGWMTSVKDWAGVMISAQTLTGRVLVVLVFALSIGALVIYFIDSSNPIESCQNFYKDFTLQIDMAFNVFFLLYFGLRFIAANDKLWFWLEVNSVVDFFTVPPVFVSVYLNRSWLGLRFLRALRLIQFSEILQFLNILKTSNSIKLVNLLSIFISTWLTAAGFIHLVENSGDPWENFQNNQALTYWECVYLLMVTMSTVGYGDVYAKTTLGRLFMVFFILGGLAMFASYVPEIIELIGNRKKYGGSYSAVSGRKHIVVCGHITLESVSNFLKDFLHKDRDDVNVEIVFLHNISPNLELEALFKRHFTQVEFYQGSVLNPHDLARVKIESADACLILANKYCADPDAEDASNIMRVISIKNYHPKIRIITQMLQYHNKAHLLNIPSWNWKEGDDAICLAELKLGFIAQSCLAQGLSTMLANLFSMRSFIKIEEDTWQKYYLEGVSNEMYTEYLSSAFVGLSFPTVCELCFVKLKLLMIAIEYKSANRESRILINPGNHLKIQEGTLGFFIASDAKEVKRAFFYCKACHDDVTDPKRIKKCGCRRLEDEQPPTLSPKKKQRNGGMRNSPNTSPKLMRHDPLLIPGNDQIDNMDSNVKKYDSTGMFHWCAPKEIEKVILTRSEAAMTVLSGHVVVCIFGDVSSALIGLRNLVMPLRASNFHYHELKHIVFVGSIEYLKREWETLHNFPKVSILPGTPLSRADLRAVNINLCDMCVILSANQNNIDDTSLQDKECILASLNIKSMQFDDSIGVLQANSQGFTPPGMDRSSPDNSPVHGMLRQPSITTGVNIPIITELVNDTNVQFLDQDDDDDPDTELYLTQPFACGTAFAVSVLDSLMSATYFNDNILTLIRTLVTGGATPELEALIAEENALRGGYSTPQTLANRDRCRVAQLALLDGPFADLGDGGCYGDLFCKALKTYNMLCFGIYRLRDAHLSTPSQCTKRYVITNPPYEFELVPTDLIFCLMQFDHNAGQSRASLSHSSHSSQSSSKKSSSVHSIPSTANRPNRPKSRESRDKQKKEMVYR
Chain of cbv1+β1 channels (Q16558 whole entry): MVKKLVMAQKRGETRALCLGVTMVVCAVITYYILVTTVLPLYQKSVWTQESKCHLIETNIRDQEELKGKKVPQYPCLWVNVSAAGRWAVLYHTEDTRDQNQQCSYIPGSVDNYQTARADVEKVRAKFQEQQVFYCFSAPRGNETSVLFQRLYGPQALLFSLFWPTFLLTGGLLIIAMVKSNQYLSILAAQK
Chain of native BK channels in rat cerebral artery myocytes (Q62976 1-1148 isoform Q62976-2): as the sequence (Q62976 1-1148 isoform Q62976-2) above
Chain of native BK channels in rat cerebral artery myocytes (P97678 whole entry): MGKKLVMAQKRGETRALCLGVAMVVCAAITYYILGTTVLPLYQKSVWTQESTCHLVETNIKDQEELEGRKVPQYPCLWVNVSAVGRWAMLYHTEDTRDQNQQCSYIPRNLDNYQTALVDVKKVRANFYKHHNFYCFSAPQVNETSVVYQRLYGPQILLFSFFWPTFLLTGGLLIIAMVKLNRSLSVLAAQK

**Q.** How did the “LC-activation (as a percentage of NPo in vehicle)” value ([1]; 150 μM, 0.1 μM Ca2+) turn out when C[C@H](CCC(=O)O)[C@H]1CC[C@H]2[C@@H]3CC[C@@H]4C[C@H](O)CC[C@]4(C)[C@H]3CC[C@]12C [LC, 5β-cholanic acid 3α-ol] was run?
**A.** 139.9±32.9%

**Q.** And the Emax at 150 µM ([1]; 150 μM, 1 μM Ca2+, read-out: LC-activation (as a percentage of NPo in vehicle), maximal effect)?
**A.** 244 ± 58.9%

**Q.** What about the Percent of control at 150 µM ([1]; 150 μM, 30 μM Ca2+i, read-out: NPo in LC (% of control)) of the same compound?
**A.** 172 ± 9.5%

**Q.** And the “Decrease in mean close time” value ([1]; 150 μM, FIG. 4B)?
**A.** −60%

**Q.** And the Percent of control at 150 µM ([1]; 150 μM, patches with N=1, read-out: Channel mean closed time (% of control))?
**A.** 41%

**Q.** What about the Percent of control at 150 µM ([1]; 150 μM, patches with N=1, read-out: Channel mean open time (% of control)) of the same compound?
**A.** 137%

**Q.** And the “Increase in Po” value ([1]; 150 μM, single-channel I/O patch (N=1), +20 mV, Ca2+i 10 μM)?
**A.** 320%

**Q.** And the Emax ([1]; I/O patches, Ca2+i 10 μM, read-out: NPo at Emax (% of control))?
**A.** 290 ± 45%

**Q.** What about the EC50 ([1]; I/O patches, Ca2+i 10 μM, ±20 mV, read-out: EC50 for increase in NPo) of the same compound?
**A.** 43.5 µM and 46 µM

**Q.** And the EC50 ([2]; Vm −40 to −30 mV, read-out: EC50 for increase in NPo)?
**A.** 46 ± 6 µM

**Q.** What about the Emax ([2]; read-out: NPo at Emax (% of control)) of the same compound?
**A.** 350%
